These results are taken from patent US20160158189A1, “SENSITIZATION OF CANCER CELLS TO APOPTOSIS INDUCTION BY FLAVAGLINES AND 5-HYDROXY-FLAVONES” (DEUTSCHES KREBSFORSCHUNGSZENTRUM, priority 2013, published 2016).

Common to all, as to format: cell-based, human
Test [1] concerns Molt-4 cells. The test is described as follows: Apoptotic cell death by DNA fragmentation, Molt-4. The following applies: Homo sapiens, ABT-199 alone, read-out: concentration inducing 50% apoptotic cell death. The protocol: (§1) The human malignant cell lines used in this study are the T cell leukemic cell lines CEM, Molt-4 and Jurkat (J16), the HL cell line KM-H2, the cervix adenocarcinoma cell line HeLa, the melanoma cell line A375, the hepatocellular carcinoma cell line HepG2, the pancreatic carcinoma cell line MiaPaca, the breast cancer cell line MCF-7, the prostatic cancer cell line PC3 and the colon carcinoma cell line HCT116. All cells were cultured in RPMI 1640 or DMEM medium (GIBCO laboratories, Grand Island, USA), supplemented with 10% FCS, 100 Units/ml penicillin (GIBCO), 100 μg/m1 streptomycin (GIBCO) and 2 mM L-glutamine (GIBCO) at 37° C. and 5%. Wogonin (BIOTREND Chemicals AG, Wangen, Switzerland), apigenin, chrysin, luteolin and baicalein (Sigma, St. Louis, USA) were solved in dimethyl sulfoxide (DMSO; Roth, Karlsruhe, Germany) at a stock concentration of 50 mM. Cells were treated with different concentrations of different flavones or ABT-263 (Selleck Chemicals, Houston, USA) for 24 to 48 h. Apoptotic cell death was examined by analysis of DNA fragmentation as previously described 23 (Fas et al.,2006, Blood 108: 3700-6). Results are presented as % specific DNA fragmentation using the formula: (percentage of experimental apoptosis-percentage of spontaneous apoptosis)/(100-percentage of spontaneous apoptosis)×100.

Test [2] deals with Jurkat (J16) cells. The test is described as follows: Apoptotic cell death by DNA fragmentation, Jurkat. Conditions: Homo sapiens; Jurkat 16; ABT-199 alone; read-out: concentration inducing 50% apoptotic cell death. The protocol:
as §1

Test [3] has as its system CEM cells. The test is described as follows: Apoptotic cell death by DNA fragmentation, CEM. The following applies: for effect on ABT-263-induced apoptosis: ABT-263 plus 10 μM flavone, 30 h. The procedure: as §1
The test system of test [4] is Mcl-1. The test is described as follows: Western blot analysis of Mcl-1 expression. The following applies: CEM; 50 μM flavone, 8 h. The text has this: For each sample, 1×10^7 cells were lysed as previously described. 23 Equal amounts of protein were separated on 5-13% SDS-PAGE depending on the molecular sizes of the proteins and blotted onto a nitrocellulose membrane (Amersham Biosciences, Little Chalfon, UK) as previously described. 23 The following antibodies were used: Bad, Bax, Bcl-xL, Bcl-w, XIAP from Cell Signaling Technology, Danvers, USA; Bcl-2 (sc-509) and Mcl-1 (sc-819) from Santa Cruz Biotechnology, Heidelberg, Germany; Tubulin and actin from Sigma, Saint Louis, USA.

Consider `CC1(C)CCC(CN2CCN(c3ccc(C(=O)NS(=O)(=O)c4ccc(NCC5CCOCC5)c([N+](=O)[O-])c4)c(Oc4cnc5[nH]ccc5c4)c3)CC2)=C(c2ccc(Cl)cc2)C1` [ABT-199, 4-[4-[[2-(4-chlorophenyl)-4,4-dimethyl-1-cyclohexen-1-yl]methyl]-1-piperazinyl]-N-[[3-nitro-4-[[(tetrahydro-2H-pyran-4-yl)methyl]amino]phenyl]sulfonyl]-2-(1H-pyrrolo[2,3-b]pyridin-5-yloxy)-Benzamide], for which the EC50 fell in the range of 5 to 10 µM in test [1]; 5 to 10 µM in test [2]; 5 to 10 µM in test [3] (Homo sapiens, CCRF-CEM, ABT-199 alone, read-out: concentration inducing 50% apoptotic cell death).

With `O=c1cc(-c2ccc(O)cc2)oc2cc(O)cc(O)c12` [Apigenin], in test [3], the “effect on ABT-263-induced apoptosis” value was “enhance ABT-263-induced apoptosis in CEM cells in a dose-dependent manner”. For the same compound, in test [4], the Mcl-1 protein expression entry is reported as “Down-regulation of Mcl-1 protein expression”.

Regarding `O=c1cc(-c2ccccc2)oc2cc(O)c(O)c(O)c12` [baicalein], in test [3], the “effect on ABT-263-induced apoptosis” value is reported as “enhance ABT-263-induced apoptosis in CEM cells in a dose-dependent manner”. For the same compound, in test [4], the Mcl-1 protein expression entry is “Down-regulation of Mcl-1 protein expression”.

As to `O=c1cc(-c2ccc(O)c(O)c2)oc2cc(O)cc(O)c12` [luteolin], in test [3], the “effect on ABT-263-induced apoptosis” value is recorded as “enhance ABT-263-induced apoptosis in CEM cells in a dose-dependent manner”. In addition, in test [4], the Mcl-1 protein expression entry is “Down-regulation of Mcl-1 protein expression”.

On to `O=c1cc(-c2ccccc2)oc2cc(O)cc(O)c12` [chrysin], for which the “effect on ABT-263-induced apoptosis” value in test [3] is recorded as “enhance ABT-263-induced apoptosis in CEM cells in a dose-dependent manner”. Also, in test [4], the Mcl-1 protein expression result was “Down-regulation of Mcl-1 protein expression”.
